# Test results: patent US20100022600A1, “METHODS AND COMPOSITIONS FOR TREATING CENTRAL NERVOUS SYSTEM TUMORS” (priority 2006, published 2010)
# Columns and labels:
# C6 glioma cell cultures = assay: Ki-67 immunoreactivity and proliferation-index in vitro; format: cell-based, rat; conditions: 30 μM pio, 2 d and 5 d
# Experimental: C6 glioma cell cultures were treated with pio or vehicle for 2 d and 5 d and fixed in 4% paraformaldehyde, rinsed in TBS and incubated with rabbit anti-Ki-67 (1:200 dilution) at 4° C. overnight and processed as described above. Counterstaining was carried out with propidium iodide (P1; 1:40; Sigma, St. Louis, Mo., USA) or DAPI-staining (1:500 in PBS). For determination of the proliferation-index, Ki-67 positive cells in pio and vehicle treated cells and animals were counted, the percentage of Ki-67 positive cells in 1×10^3 tumor cells (P1 staining used in the in vitro experiments—not shown; DAPI stain used in the in vivo experiments) calculated and statistically compared. The percentage of cleaved caspase-3 positive cells was assessed by counting the immunopositive cells in 1×10^3 tumor (DAPI stain) cells and statistically compared.
# cleaved caspase-3 [1] = assay: Immunohistochemistry of cleaved caspase-3 in tumors, C6 rat glioma model; format: in vivo; conditions: 6 to 14 days of pio treatment, significant maximum at 9 d
# Experimental: Frozen brain sections were first blocked with 5% normal goat serum or normal horse serum in PBS and subsequently incubated with rabbit anti-Ki-67 antibody (1:200 dilution), mouse anti-CS-56 (1:100 dilution), goat anti-MMP-9 (1:100 dilution) or rabbit anti-cleaved caspase-3 antibody (1:200 dilution) at 4° C. overnight. Sections were washed extensively with PBS before incubation with secondary antibodies. Incubation was carried at room temperature for 1 h. After washing with PBS three times, stained slides were mounted with PBS/glycerol (1:1) and viewed under a fluorescent microscope (Leica, Germany). […] The percentage of cleaved caspase-3 positive cells was assessed by counting the immunopositive cells in 1×10^3 tumor (DAPI stain) cells and statistically compared.
# cleaved caspase-3 [2] = assay: Western blot of cleaved caspase-3 in whole-hemisphere lysates, C6 rat glioma model; format: in vivo; conditions: 6 d of pio treatment
# Experimental: (§1) For western-blot analysis, tumor-containing hemispheres were homogenized in Tris-HCl [50 mM Tris-HCl pH8, 120 mM NaCl, 5 mM EDTA, 0.5% (v/v) NP-40, […] phenylmethylsulfonyl fluoride (PMSF)] and sonicated. Homogenates were collected by centrifugation (15 min 11000 g. 4° C.) and protein concentration in the supernatant was determined using the Bio-Rad Protein Assay (Biorad, Munich, Germany). Lysates (20-40 μg) were separated on a 7% (w/v) sodium dodecyl sulfate (SDS)-polyacrylamide gel under reducing conditions and transferred to a PVDF membrane (Millipore, Bedford, Mass., USA). Non-specific binding was blocked by incubation with 5% (w/v) skimmed milk in TBS for 2 h. Following incubation with the primary antibody overnight at 4° C. [rabbit anti-BAX 1:1000, rabbit anti-cleaved caspase-3 1:1000, mouse […] 1:1000, goat anti-MMP-9 1:1000 in TBS containing 0.1% (v/v) Tween 20] membranes were washed three times in TBS/Tween for 5 min and subsequently incubated for 120 min in TBS/Tween containing secondary peroxidase-conjugated antibody at room temperature (anti-rabbit 1:1000, anti-mouse 1:1000; anti-goat 1:1000 respectively). Signals were visualized by chemoluminescence (Pierce, Rockford, Ill., USA) and band intensities were quantified with NIH Image 1.62 software (Bethesda, Md., USA).
# primary astrocytes = assay: MTT viability assay, primary astrocytes; format: cell-based; conditions: 1, 10, 30 μM; 1, 3, 5, 7 d
# Experimental: (§2) Rat C6 glioma cells were grown in DMEM and human glioma cells (U87, A172) in RPMI, supplemented with 10% (v/v) fetal calf serum, 100 U/mL penicillin and 100 U/mL streptomycin in a 5% CO2 atmosphere. Primary astrocyte cultures were prepared as described previously (J Neurosci 1998; 18: 4451-60) and grown in DMEM, supplemented with 2.5% (v/v) fetal calf serum, 100 U/mL penicillin and 100 U/mL streptomycin in a 5% CO2 atmosphere. […] Experiments were performed in triplicate.
# Bax = assay: Western blot of Bax in whole-hemisphere lysates, C6 rat glioma model; format: in vivo
# Experimental: as §1
# human glioma cells A172 = assay: MTT viability assay, human A172 glioma cells; format: cell-based; conditions: 30 μM pio; 3, 5 and 7 d
# Experimental: as §2
# human glioma cells U87 = assay: MTT viability assay, human U87 glioma cells; format: cell-based; conditions: 30 μM pio; 3, 5 and 7 d
# Experimental: as §2
# Ki-67 = Ki-67 immunoreactivity and proliferation-index in vivo; design: species or system rat; conditions: 9, 14 and 21 days of pio treatment
# Experimental: Frozen brain sections were first blocked with 5% normal goat serum or normal horse serum in PBS and subsequently incubated with rabbit anti-Ki-67 antibody (1:200 dilution), mouse anti-CS-56 (1:100 dilution), goat anti-MMP-9 (1:100 dilution) or rabbit anti-cleaved caspase-3 antibody (1:200 dilution) at 4° C. overnight. Sections were washed extensively with PBS before incubation with secondary antibodies. Incubation was carried at room temperature for 1 h. After washing with PBS three times, stained slides were mounted with PBS/glycerol (1:1) and viewed under a fluorescent microscope (Leica, Germany). For determination of the proliferation-index, Ki-67 positive cells in pio and vehicle treated cells and animals were counted, the percentage of Ki-67 positive cells in 1×10^3 tumor cells (P1 staining used in the in vitro experiments—not shown; DAPI stain used in the in vivo experiments) calculated and statistically compared. The percentage of cleaved caspase-3 positive cells was assessed by counting the immunopositive cells in 1×10^3 tumor (DAPI stain) cells and statistically compared.
# CS-56 = CS-56 expression in vivo (western blot, immunohistochemistry); design: species or system rat
# Experimental: as §1, with “Md., USA). Frozen brain sections were first blocked with 5% normal goat serum or normal horse serum in PBS and subsequently incubated with rabbit anti-Ki-67 antibody (1:200 dilution), mouse anti-CS-56 (1:100 dilution), goat anti-MMP-9 (1:100 dilution) or rabbit anti-cleaved caspase-3 antibody (1:200 dilution) at 4° C. overnight. Sections were washed extensively with PBS before incubation with secondary antibodies. Incubation was carried at room temperature for 1 h. After washing with PBS three times, stained slides were mounted with PBS/glycerol (1:1) and viewed under a fluorescent microscope (Leica, Germany).” for “Md., USA).”
compound,measurement,setting,value
"CCc1ccc(CCOc2ccc(CC3SC(=O)NC3=O)cc2)nc1 (stereo not shown) [pioglitazone, 5-[4-[2-(5-ethylpyridin-2-yl)ethoxyl]benzyl]thiazolidine-2,4-dione]",number of Ki-67 immunopositive cells compared to vehicle,C6 glioma cell cultures,reduced the number of Ki-67 immunopositive cells
same,cleaved caspase-3 expression (immunohistochemistry),cleaved caspase-3 [1],elevated cleaved caspase-3 expression
same,induction of cleaved caspase-3 (densitometry),cleaved caspase-3 [2],2.88 fold
same,viability of primary astrocytes,primary astrocytes,not affected
same,"Bax-protein levels versus vehicle (densitometry), in words","Bax; 3, 6, 9 and 14 d",significant difference
same,induction of Bax protein (densitometry),Bax; 6 d of pio treatment,1.66 fold
same,upregulation of proapoptotic proteins,Bax; after 21 days of treatment (data not shown),not associated with an upregulation of proapoptotic proteins
same,"cellular viability, effect in words",human glioma cells A172,significantly reduced cellular viability
same,"cellular viability, effect in words",human glioma cells U87,significantly reduced cellular viability
same,Ki-67 expression in vivo,Ki-67,significant reduction of Ki-67 expression
same,CS-56 expression (western blot),CS-56; tissue lysates,upregulation of CS-56 expression
same,increase in CS-56 protein levels (densitometry),CS-56; tissue lysates,around 56%
same,CS-56 expression (immunohistochemistry),CS-56; tumor margin towards healthy brain tissue,upregulation of CS-56
